Here are results for eight compounds from ChEMBL document CHEMBL4673393, “Synthesis and Metabolism of BTN3A1 Ligands: Studies on Modifications of the Allylic Alcohol” (ACS Med Chem Lett, 2021).

A short description of series [1]: Prodrug conversion in human K562 cells assessed as conversion of free acid alcohol at 100 uM measured after 1 hr by LC-MS analysis. It counts as ADME, cell-based. As to conditions: k562, 1 h.
The nature of series [2]: Prodrug conversion in human K562 cells assessed as conversion of monoacid in allylic aldehyde form at 100 uM measured after 1 hr by LC-MS analysis. It counts as ADME, cell-based. As to conditions: k562, 1 h.
A short description of series [3]: Prodrug conversion in human K562 cells assessed as conversion of phosphonic monoacid in allylic aldehyde form at 100 uM measured after 1 hr by LC-MS analysis. Particulars: k562, 1 h. It counts as ADME, cell-based.
The target of series [4] is Butyrophilin subfamily 3 member A1 (Homo sapiens) (UniProt O00481). Kind of series: Binding affinity to BTN3A1 in human K562 cells assessed as induction of Vgamma9/Vdelta2 T cell-mediated interferon gamma release preincubated for 4 hrs followed by compound washout and subsequent Vgamma9Vdelta2 T cell addition measured after 20 hrs by ELISA. Format: cell-based.
The test system of the next series is K562. Nature of the series: Toxicity in human K562 cells assessed as reduction in cell viability at 100 uM after 72 hrs by Qb reagent based fluorescence assay. As to conditions: k562, 72 h.
In series [5] the target is Butyrophilin subfamily 3 member A1 (Homo sapiens) (UniProt O00481). Nature of the series: Binding affinity to BTN3A1 in human PBMC-derived Vgamma9/Vdelta2 T cells assessed as induction of Vgamma9Vdelta2 T cells proliferation incubated for 3 days by gamma delta TCR/PE-CD3+ antibody staining based FACS analysis relative to HMBP analog. Particulars: Vgamma9Vdelta2 T cell, time 3.0 day.

The nature of series [6]: Prodrug conversion in human K562 cells assessed as dehydration by measuring DMAP monoacid formation at 100 uM measured after 1 hr by LC-MS analysis. Format: ADME, cell-based. As to conditions: k562, 1 h.
A short description of series [7]: Prodrug conversion in human K562 cells assessed as glutathione conjugation at 100 uM measured after 1 hr by LC-MS analysis. Format: ADME, cell-based. Particulars: k562, 1 h.
Series [8] is described as follows: Prodrug conversion in human K562 cells assessed as conversion of monoacid in allylic alcohol form at 100 uM measured after 1 hr by LC-MS analysis. As to conditions: k562, 1 h. Format: ADME, cell-based.
Series [9] can be described thus: Prodrug conversion in human K562 cells assessed as conversion of phosphonic monoacid in allylic alcohol form at 100 uM measured after 1 hr by LC-MS analysis. Format: ADME, cell-based. Particulars: k562, 1 h.

SMILES strings stand for the structures. The source made the active and inactive calls. The calls are words filed in the database; no cut-off is given here. Some results are limits rather than exact numbers.

Chain of Butyrophilin subfamily 3 member A1 (Homo sapiens) (O00481 30-513 limits assumed): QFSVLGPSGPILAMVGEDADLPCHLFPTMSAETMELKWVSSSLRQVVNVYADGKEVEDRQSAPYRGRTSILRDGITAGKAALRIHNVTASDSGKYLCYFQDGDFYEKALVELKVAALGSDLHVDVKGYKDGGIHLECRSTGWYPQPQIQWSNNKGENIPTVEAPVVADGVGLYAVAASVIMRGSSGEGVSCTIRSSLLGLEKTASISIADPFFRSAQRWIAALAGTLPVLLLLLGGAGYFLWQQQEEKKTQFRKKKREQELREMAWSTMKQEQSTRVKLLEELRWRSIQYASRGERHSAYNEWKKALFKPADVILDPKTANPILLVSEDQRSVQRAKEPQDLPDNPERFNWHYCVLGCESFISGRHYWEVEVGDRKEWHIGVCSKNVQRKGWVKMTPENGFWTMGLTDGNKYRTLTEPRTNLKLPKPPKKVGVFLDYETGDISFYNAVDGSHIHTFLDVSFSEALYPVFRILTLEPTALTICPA

`C/C(C=O)=C\CCP(=O)(OCOC(=O)C(C)(C)C)Oc1ccc2ccccc2c1` (stereo unspecified): the Drug metabolism entry in series [1], in series [2] and in series [3] was “Metabolite_Detected” in each case. Further, the result in [4] was Active. Besides, the Activity entry with K562 is reported as “Toxic”. Besides, the fold change (FC) in [5] turned out to be 2.

With `C/C(C=O)=C\CCP(=O)(NCC(=O)OC(C)C)Oc1ccccc1` (stereo unspecified), the fold change (FC) in series [5] worked out at 45.

With `C/C(C=O)=C\CCP(=O)(OCOC(=O)C(C)(C)C)Oc1ccc2ccc(=O)oc2c1` (stereo unspecified), the outcome in series [4] was Active. The fold change (FC) in [5] stood at 2.

For `C/C(C=O)=C\CCP(=O)(OCOC(=O)C(C)(C)C)OCOC(=O)C(C)(C)C`, the Drug metabolism result in series [6], in series [1], in series [7], in series [2] and in series [3] was “Metabolite_Detected” in each case. Besides, the Activity result in the series with K562 is reported as “Toxic”. The fold change (FC) in series [5] worked out at 9.

Turning to `COC(=O)CNP(=O)(CC/C=C(\C)C=O)Oc1ccccc1` (stereo unspecified), the Activity entry in the series on K562 is “Toxic”. For the same compound, the fold change (FC) in [5] was 31.

In the case of `CCOC(=O)CNP(=O)(CC/C=C(C)/C=N/O)Oc1ccccc1` (stereo unspecified), in series [2], the Drug metabolism entry is reported as “Metabolite_Detected”. In addition, in [5], the fold change (FC) is above 2100.

On to `C/C(=C\CCP(=O)(OCOC(=O)C(C)(C)C)OCOC(=O)C(C)(C)C)CO`, for which the Drug metabolism result is reported as “Metabolite_Notdetected” in [2], “Metabolite_Notdetected” in series [3], “Metabolite_Detected” in series [8] and “Metabolite_Detected” in series [9].

On to `CCOC(=O)CNP(=O)(CC/C=C(\C)C=O)Oc1ccccc1` (stereo unspecified), for which the Drug metabolism entry in [2] is “Metabolite_Detected”. Moreover, the fold change (FC) in series [5] stood at 56.
